The text below walks through data of US8940697B2, “Compositions and methods for the treatment of myocardial ischemia/reperfusion injury with Annexin A1 short peptide” (Duke University, priority 2009, dated 2015).

One assay deals with NIH 3T3 cells. Kind of assay: LPS-induced NIH 3T3 cells: NF-κB activity, IL-6, cell death. Format: cell-based. The settings on record: LPS+peptide vs LPS, 0, 1, 3 and 6 hours. The protocol: FIG. 2A is a graph showing the effect of ANXA1sp on NF-κB activity over time on NIH 3T3 cells activated with LPS alone and LPS+peptide. FIG. 2B is a graph showing the effect of ANXA1sp on interleukin-6 (IL-6) production over time by NIH 3T3 cells activated with LPS alone and LPS+peptide.
The ANXA1sp was next tested in LPS-induced NIH 3T3 cells to determine if NF-κB activity was inhibited. NIH 3T3 cells were exposed to LPS or LPS+ANXA1sp (LPS+Peptide) for 0, 1, 3 and 6 hours. Cell lysates were obtained and levels of NF-κB activity and IL-6 were measured by ELISA. Cell death was also measured by Trypan blue exclusion.

A further assay relates to Male Yorkshire pigs. Kind of assay: Pig CPB/CA model of myocardial I/R injury. Format: in vivo. The protocol:
Pig CPB/CA: Male Yorkshire pigs (32-38 kg) were subjected to 120 min of mild hypothermic CPB, including 60 min of CA using 4:1 blood cardioplegia, and received either ANXA1sp (iv after anesthesia induction and with each dose of cardioplegia, 4 mg/kg total, CA_SP group, n=4) or vehicle (CA_CTRL, n=8). Efficacy endpoints and underlying mechanisms were assessed as described herein.

Assay [1] deals with adult rat ventricular cardiomyocytes (ARVC). Kind of assay: Long-term culture survival of adult rat cardiomyocytes in normal or high glucose. In kind it is cell-based. The settings on record: for cardiomyocytes still alive, with rod-shaped morphology: day 26. The text has this:
Cardiomyocytes isolated from adult rats were exposed to ANXAsp (FIG. 3C and FIG. 3D) or the N-terminal 25mer Ac2-26 (FIG. 3E and FIG. 3F) in either normal glucose (NG) or high glucose (HG), respectively, for 26 days, Untreated control cells in normoglycemic and hyperglycemic media are presented in FIG. 3A and FIG. 3B,
Cardiomyocytes isolated from adult rat in both normal and hyperglycemic culture media were exposed directly to ANXA1sp. […] The cardioprotective effects of ANXA1sp was further examined in hyperglycemic exacerbation of myocardial injury due to simulated ischemia/reperfusion in vitro. Adult rat ventricular cardiomyocytes (ARVCs) were treated with/without either ANXA1sp or Ac2-26 in both normo- and hyperglycemic culture media for 24 hours. Cells were washed with deoxygenated glucose-free DMEM medium in an anaerobic chamber that filtrated a gas mixture of 5% CO2-10% H2-85% N2 and incubated for 2 hours. After oxygen/glucose deprivation (OGD), cells were cultured under normoxic conditions in a 5% CO2 incubator for 24 hours. Cells without OGD were used as a positive control. Cell death was determined by trypan blue exclusive staining. Cells were counted in triplicate wells and in eight random fields in each well.

Setting [2] is: 4 mg/kg, systemically and in the cardioplegia solution.

Marks after values point to notes of the source that are not given here.

Turning to Ac-Gln-Ala-Trp [ANXA1sp], in the assay with NIH 3T3 cells, the “apoptosis (cell death, Trypan blue exclusion)” value is “inhibited”. Further, the IL-6 entry in the assay with NIH 3T3 cells (ELISA) is “inhibited”. Besides, the NF-κB activity entry with NIH 3T3 cells (ELISA of cell lysates) was “inhibited”. The hemodynamics result in the assay on Male Yorkshire pigs (4 mg/kg total) is given as “improved hemodynamics”. Besides, the “animals requiring inotropic or vasopressor support” value in the assay with Male Yorkshire pigs (4 mg/kg total, support substantial in all control animals) is reported as “none requiring either inotropic or vasopressor support”. In addition, in the assay on Male Yorkshire pigs (setting [2]), the left ventricular dysfunction entry is “significant reduction”, the postoperative arrhythmias result is reported as “significant reduction” and the vasoplegia entry is on record as “significant reduction”. Also, in the assay with Male Yorkshire pigs (CA_SP: 4 mg/kg total), the Apoptosis worked out at 5.9 ± 2.3 %, the “Epinephrine (inotropic support required)” value is listed as 0** mcg/6 hs, the “Heart Rate” value was determined as 135 ± 18 beats/min and the NF-κB activity is given as 0.8 ± 0.04 A.U. In addition, in the assay with Male Yorkshire pigs (CA_SP: 4 mg/kg total), the “SVI (stroke volume index)” value was found to be 36 ± 5 ml/m^2, the TNF-α was determined as 28.8 ± 6.7 ng/mg protein and the “Vasopressin (vasopressor support required)” value was 0** U/6 hrs. In addition, the Caspase-3 in the assay on Male Yorkshire pigs (CA_SP: 4 mg/kg total, iv and with cardioplegia) stood at 137.3 ± 9.8 A.U. Moreover, the “protection of cardiomyocytes from cell death” value in assay [1] (both normo- and hyperglycemic conditions) is “significantly protected cardiomyocytes from cell death”. In addition, the “cardiomyocytes still alive, with rod-shaped morphology” value in assay [1] (high glucose) is approximately 50%. Besides, the “cardioprotective effect compared with Ac2-26” value in assay [1] (long-term culture, normal and high glucose) is reported as “much stronger than that of the commercial annexin A1 N-terminal peptide, Ac2-26”. Further, the “cardiomyocytes still alive, with rod-shaped morphology” value in assay [1] (normal glucose) was “about 70%”.
